Assay results published in paper PMC8826726, “Selective Toxicity of Secondary Metabolites from the Entomopathogenic Bacterium Photorhabdus luminescens sonorensis against Selected Plant Parasitic Nematodes of the Tylenchina Suborder” (Microbiology Spectrum, 2022).
Values after ≈ are worked out from the molar mass of the structure shown.

Columns and labels:
Meloidogyne incognita = conditions: cited from earlier work
Caenorhabditis elegans = conditions: cited from earlier work
[1] = test system: non-target nematodes versus targeted PPNs; test: Selectivity index, non-target nematodes over targeted PPNs; conditions: 24 h LC50
Description: The selectivity index of a given SM was calculated by dividing the averages of the LC50 or EC50 values obtained against each of the selected non-target nematodes by the LC50 or the EC50 values observed for each of the targeted PPN tested.

[2] = In vitro nematicidal assay, values summarised over the non-target nematodes; type: cell-based; conditions: non-target nematodes in 12-well tissue culture plates; 24 h exposure; species for which an LC50 was established; read-out: LC50 values, range over non-target nematodes
[3] = test system: Tylenchulus semipenetrans J2 juveniles; test: microbe, parasite or virus in culture; conditions: mortality
Excerpt: (§1) Only soil inhabiting (free-living or infective) stages of target and non-target nematode species were considered in the present study. All nematode cultures (except T. semipenetrans) were maintained in the Stock laboratory (University of Arizona). M. incognita was reared in planta using susceptible tomato plants (cv. Roma VF; seedlings with five or six true leaves; courtesy of Dr. J. Brown, University of Arizona). Eggs of M. incognita were extracted from infected tomato plant roots, and J2 were collected after hatching, following the procedures of Atamian et al. ([50]). T. semipenetrans was isolated from infested lemon orchards at the Yuma Agricultural Center, University of Arizona (Yuma, AZ, USA). Eggs of T. semipenetrans were extracted from infected lemon tree roots using the procedures of El-Borai et al. ([51]), and J2 were collected using the same procedure as that described for M. incognita.
(§2) Twelve-well tissue culture plates were used as the experimental arena. For each of the tested nematode species, an inoculum of 100 nematodes, suspended in 20 μL distilled water, was added to each well. […] For PPA (Enamine) and indole (Alfa Aesar), 13 incremental concentrations were tested ranging from 10 to 400 μg/mL in 1 mL of distilled water (DMSO ≤ 1%; vol/vol). […] Distilled water with 1% DMSO was used as the negative control. To measure the combined nematicidal effects of the three SMs, equal concentrations of two or three SMs were mixed in 1:1 or 1:1:1 mixture. For example, a 20 μg/mL solution of a two-SM mixture contained 20 μg from metabolite A and 20 μg metabolite B, dissolved in 1 mL distilled water. Individual or combined SMs from 10 μg/mL to 200 μg/mL (in 20 μg/ml increments) were prepared in distilled water (DMSO ≤ 1%; vol/vol) and used for the bioassays.
(§3) The well plates were covered with their lids and incubated at 25°C in the dark. For the targeted nematode species, nematicidal activity was recorded at 24 h, 48 h, and 72 h after initial exposure to the individual SMs. For the non-target species, data were only recorded at 24 h after initial exposure to the individual SMs. For SM mixtures, mortality was recorded 24 h after initial exposure of the targeted nematode species. Nematodes were probed with a needle to assess if they were alive, dead, or paralyzed. […] Those nematodes that resumed activity upon probing were considered to suffer from temporary paralysis (impaired motility). Paralyzed nematodes were rinsed at least three times in distilled water and held for an additional 24 h to check for their recovery from temporarily paralysis. […] Experiments were repeated at least three times per treatment for each concentration tested.
(§4) For the toxicity data visualization, the relationship between percent mortality or temporary paralysis and metabolite concentration were described by a sigmoidal curve, which was fitted by the logistical function using the statistical software package SigmaPlot for Windows, version 14.0 (Systat Software Inc.). […] Concentration-response data of single metabolites or SM mixtures were pooled for each concentration and subjected to probit regression analysis using the Polo Plus program (LeOra Software). The LC or EC values, along with the corresponding 95% confidence intervals, were estimated for each single SM or SM mixture at each exposure time, depending on the experimental setting.

[4] = test system: Meloidogyne incognita J2 juveniles; test: microbe, parasite or virus in culture; conditions: for LC50 / LC10 / LC25 / LC90: mortality
Excerpt: as §1, §2, §3, §4

in vitro = test: in vitro
Excerpt: The non-target species, C. elegans wild-type strain N2 Bristol (courtesy of Dr. G.L. Sutphin, University of Arizona) and Rhabditis blumi DF5010 (Caenorhabditis Genetics Center, University of MN, USA) were maintained in vitro in nematode growth medium (NGM) agar plates seeded with Escherichia coli (Migula) Castellani and Chalmers, strain OP-50, as described previously ([52]). Mixed juveniles and hermaphrodites (5 to 6 days old) were collected from the culture plates prior to the bioassays. Infective third-stage juveniles (IJs) of three non-target entomopathogenic nematode species (H. sonorensis Caborca strain, H. bacteriophora TT01 strain, and Steinernema carpocapsae All strain) were also maintained by rearing them in vivo using wax moth larvae (Galleria mellonella) as the host, according to procedures described previously ([53]), and collected for bioassays within 2 to 4 days of their emergence from nematode-infected cadavers. Nematode population density (number of nematodes per ml) was standardized prior to setting up well-plate bioassays, by adjusting each nematode suspension to a concentration of 100 nematodes in 20 μL of distilled water.
as §2, §3, §4

MCF-7 (breast cancer) = test: MTT cytotoxicity assay; type: cell-based, human; conditions: tested at 50, 100, 200 μM, data not shown
Description: (§5) The non-cancerous HFF cells (human foreskin cells) and three human cancer cell lines, NCI-H460 (non-small cell lung cancer), SF-268 (central nervous system glioma), and MCF-7 (breast cancer) were used to evaluate the in vitro cytotoxicity of the isolated Photorhabdus SMs. The MTT (3-(4,5-dimethylthiazol-2-yl)-2,5-diphenyltetrazolium bromide) colorimetric method ([54]) was used with doxorubicin as the positive control, and DMSO as the negative control. Photorhabdus SMs were tested at 50, 100, and 200 μM concentrations, and the assays were repeated three times.

[5] = test system: SF-268 (central nervous system glioma); test: MTT cytotoxicity assay; type: cell-based, human; conditions: tested at 50, 100, 200 μM, data not shown
Description: as §5

[6] = test system: NCI-H460 (non-small cell lung cancer); test: MTT cytotoxicity assay; type: cell-based, human; conditions: tested at 50, 100, 200 μM, data not shown
Description: as §5

[7] = test system: HFF cells (human foreskin cells); test: MTT cytotoxicity assay; type: cell-based; conditions: tested at 50, 100, 200 μM, data not shown
Description: as §5

Row | Compound | LC10 ([3]; 24 h exposure) | LC25 ([3]; 24 h exposure) | LC90 ([3]; 24 h exposure) | LC10 ([3]; 48 h exposure) | LC25 ([3]; 48 h exposure) | LC90 ([3]; 48 h exposure) | LC25 ([3]; 72 h exposure) | LC90 ([3]; 72 h exposure) | LC10 ([4]; 24 h exposure) | LC25 ([4]; 24 h exposure) | LC90 ([4]; 24 h exposure) | LC10 ([4]; 48 h exposure) | LC25 ([4]; 48 h exposure) | LC90 ([4]; 48 h exposure) | LC25 ([4]; 72 h exposure) | LC90 ([4]; 72 h exposure) | also measured
1 | CC(C)c1c(O)cc(C=Cc2ccccc2)cc1O [3,5-dihydroxy-4-isopropylstilbene] |  |  |  |  |  |  |  |  |  |  |  |  |  |  |  |  | Nematicidal activity (Meloidogyne incognita): no activity; Toxicity to non-target bacterivorous nematode (Caenorhabditis elegans): toxic at similar concentrations (up to 100 μg/ml)
2 | O=C(O)CC/C=C/c1ccccc1 [PPA, (4E)-5-phenylpent-4-enoic acid] | 50.8 (27.0, 60.5) μg/mL | 57.6 (36.6, 66.0) μg/mL | 86.4 (78.2, 109.0) μg/mL | 42.7 (31.2, 50.0) μg/mL | 50.1 (39.8, 56.6) μg/mL | 83.7 (76.3, 96.6) μg/mL | 28.0 (8.0, 42.7) μg/mL | 92.4 (60.6, 312.0) μg/mL | 29.4 (22.1, 34.6) μg/mL | 35.8 (29.0, 40.5) μg/mL | 66.9 (61.4, 75.5) μg/mL | 27.6 (19.0, 33.3) μg/mL | 33.6 (25.7, 39.0) μg/mL | 63.9 (57.2, 75.9) μg/mL | 30.7 (22.0, 36.6) μg/mL | 61.0 (52.7, 76.5) μg/mL | Selectivity index (LC50 for the non-target nematodes over those for the targeted PPNs) [1]: 6 to 8; LC50 at 24 h [2]: 278 to 421 µg/mL (≈ 1580 to 2390 µM); LC50 ([3]; Tylenchulus semipenetrans, 24 h, 24 h exposure): 66 µg/mL (≈ 375 µM); LC50 ([3]; Tylenchulus semipenetrans, 48 h, 48 h exposure): 59.8 µg/mL (≈ 339 µM); LC50 ([3]; Tylenchulus semipenetrans, 72 h, 72 h exposure): 42.2 µg/mL (≈ 239 µM); LC50 ([3]; 24 h exposure): 66.3 µg/mL (≈ 376 µM); LC10 ([3]; 72 h exposure): 19.3 (3.06, 31.9) μg/mL; Reduction of LC50 for M. incognita versus T. semipenetrans ([4]; 24 h postexposure): 33%; LC50 ([4]; Meloidogyne incognita, 24 h, 24 h exposure): 44 µg/mL (≈ 250 µM); LC50 ([4]; Meloidogyne incognita, 48 h, 48 h exposure): 42 µg/mL (≈ 238 µM); LC50 ([4]; Meloidogyne incognita, 72 h, 72 h exposure): 38.9 µg/mL (≈ 221 µM); LC50 ([4]; 24 h exposure): 44.4 µg/mL (≈ 252 µM); LC10 ([4]; 72 h exposure): 24.8 (16.0, 31.0) μg/mL; LC50 at 24 h (in vitro; All, Steinernema carpocapsae): > 400 µg/mL; LC50 at 24 h (in vitro; Caborca, Heterorhabditis sonorensis): > 400 µg/mL; LC50 at 24 h (in vitro; DF5010, Rhabditis blumi): 346 µg/mL (≈ 1960 µM); LC50 at 24 h (in vitro; N2 Bristol, Caenorhabditis elegans): 278 µg/mL (≈ 1580 µM); LC50 at 24 h (in vitro; TT01, Heterorhabditis bacteriophora): > 400 µg/mL
3 | O=C(O)/C=C/c1ccccc1 [t-CA, trans-cinnamic acid] | 53.1 (41.2, 61.2) μg/mL | 62.8 (52.2, 70.0) μg/mL | 108.0 (100.0, 121.0) μg/mL | 51.5 (39.7, 59.1) μg/mL | 60.0 (49.6, 66.6) μg/mL | 98.0 (90.7, 110.0) μg/mL | 54.9 (44.4, 61.8) μg/mL | 95.8 (88.2, 108.0) μg/mL | 42.7 (25.6, 52.2) μg/mL | 53.0 (38.0, 61.6) μg/mL | 106.0 (89.6, 159.0) μg/mL | 37.3 (19.1, 47.2) μg/mL | 45.7 (29.0, 55.1) μg/mL | 87.9 (73.0, 137.0) μg/mL | 45.2 (37.7, 50.4) μg/mL | 69.7 (62.6, 82.9) μg/mL | In vitro cytotoxicity: none even at the highest concentration tested (MCF-7 (breast cancer)): > 200 µM; In vitro cytotoxicity: none even at the highest concentration tested [5]: > 200 µM; In vitro cytotoxicity: none even at the highest concentration tested [6]: > 200 µM; In vitro cytotoxicity: none even at the highest concentration tested [7]: > 200 µM; Reduction of the LC90 at 72 h versus 24 h ([4]; M. incognita): 34%
